Laboratory results from PubChem BioAssay (NCI).
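1) Cells in 96-well plates. 2) Compound, 48 h, 5 concentrations. 3) Linear interpolation between surrounding doses. 4) Unreached endpoint = highest concentration. At the TGI there is no net growth.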

Columns and labels:
Experiment in all cases: NCI anticancer screen, dose series, 48 h
KM20L2 colon = test system: KM20L2 colon
OVCAR-5 ovarian = test system: OVCAR-5 ovarian
OVCAR-4 ovarian = test system: OVCAR-4 ovarian
U251 CNS = test system: U251 CNS
MALME-3M melanoma = test system: MALME-3M melanoma
ACHN renal = test system: ACHN renal
HCT-116 colon = test system: HCT-116 colon
XF 498 CNS = test system: XF 498 CNS
UACC-62 melanoma = test system: UACC-62 melanoma
COLO 205 colon = test system: COLO 205 colon
HOP-62 NSCLC = test system: HOP-62 NSCLC
RPMI-8226 leukemia = test system: RPMI-8226 leukemia
SF-268 CNS = test system: SF-268 CNS
NCI-H23 lung = test system: NCI-H23 lung
UACC-257 melanoma = test system: UACC-257 melanoma
OVCAR-8 ovarian = test system: OVCAR-8 ovarian
SK-MEL-28 melanoma = test system: SK-MEL-28 melanoma
M19-MEL melanoma = test system: M19-MEL melanoma
SF-539 CNS = test system: SF-539 CNS
SK-OV-3 ovarian = test system: SK-OV-3 ovarian
NCI-H460 lung = test system: NCI-H460 lung
LOX IMVI melanoma = test system: LOX IMVI melanoma
RXF 393 renal = test system: RXF 393 renal
CCRF-CEM leukemia = test system: CCRF-CEM leukemia
HL-60(TB) leukemia = test system: HL-60(TB) leukemia
UO-31 renal = test system: UO-31 renal
LXFL 529 NSCLC = test system: LXFL 529 NSCLC
OVCAR-3 ovarian = test system: OVCAR-3 ovarian
SNB-75 CNS = test system: SNB-75 CNS
HOP-18 NSCLC = test system: HOP-18 NSCLC
HCC-2998 colon = test system: HCC-2998 colon
KM12 colon = test system: KM12 colon
SNB-78 CNS = test system: SNB-78 CNS
SNB-19 CNS = test system: SNB-19 CNS
SF-295 CNS = test system: SF-295 CNS
MOLT-4 leukemia = test system: MOLT-4 leukemia
DLD-1 colon = test system: DLD-1 colon
SR leukemia = test system: SR leukemia
SK-MEL-2 melanoma = test system: SK-MEL-2 melanoma
HT29 colon = test system: HT29 colon
HCT-15 colon = test system: HCT-15 colon
DMS 114 small cell lung = test system: DMS 114 small cell lung
A498 renal = test system: A498 renal
SN12C renal = test system: SN12C renal
EKVX NSCLC = test system: EKVX NSCLC
TK-10 renal = test system: TK-10 renal
K-562 leukemia = test system: K-562 leukemia
DMS 273 small cell lung = test system: DMS 273 small cell lung
NCI-H226 lung = test system: NCI-H226 lung
M14 melanoma = test system: M14 melanoma
NCI-H522 lung = test system: NCI-H522 lung
786-0 renal = test system: 786-0 renal
A549 NSCLC = test system: A549 NSCLC
IGROV1 ovarian = test system: IGROV1 ovarian
HOP-92 NSCLC = test system: HOP-92 NSCLC
SW-620 colon = test system: SW-620 colon

COc1cc(Cl)cc(=O)c(O)c1OC showed a TGI (KM20L2 colon) greater than 100 µM, a TGI (OVCAR-5 ovarian) greater than 100 µM and a TGI (OVCAR-4 ovarian) greater than 100 µM. For the same compound, the TGI (U251 CNS) was greater than 100 µM, the TGI (MALME-3M melanoma) was greater than 100 µM and the TGI (ACHN renal) was greater than 100 µM. It also gave a TGI (HCT-116 colon) greater than 100 µM, a TGI (XF 498 CNS) greater than 100 µM and a TGI (UACC-62 melanoma) of 70.7 µM. For the same compound, the TGI (COLO 205 colon) was greater than 81.2 µM, the TGI (HOP-62 NSCLC) was greater than 100 µM and the TGI (RPMI-8226 leukemia) was greater than 100 µM. For the same compound, the TGI (SF-268 CNS) was greater than 100 µM, the TGI (NCI-H23 lung) was greater than 100 µM and the TGI (UACC-257 melanoma) was greater than 100 µM. For the same compound, the TGI (OVCAR-8 ovarian) was greater than 100 µM, the TGI (SK-MEL-28 melanoma) was greater than 100 µM and the TGI (M19-MEL melanoma) was greater than 100 µM. For the same compound, the TGI (SF-539 CNS) was greater than 100 µM, the TGI (SK-OV-3 ovarian) was greater than 100 µM and the TGI (NCI-H460 lung) was greater than 100 µM. It also gave a TGI (LOX IMVI melanoma) greater than 100 µM, a TGI (RXF 393 renal) greater than 100 µM and a TGI (CCRF-CEM leukemia) greater than 100 µM. The TGI (HL-60(TB) leukemia) was greater than 80.9 µM, the TGI (UO-31 renal) was greater than 100 µM and the TGI (LXFL 529 NSCLC) was greater than 100 µM. The TGI (OVCAR-3 ovarian) was greater than 87.2 µM, the TGI (SNB-75 CNS) was greater than 100 µM and the TGI (HOP-18 NSCLC) was greater than 100 µM. The TGI (HCC-2998 colon) was greater than 100 µM, the TGI (KM12 colon) was greater than 100 µM and the TGI (SNB-78 CNS) was greater than 100 µM. It also gave a TGI (SNB-19 CNS) greater than 100 µM, a TGI (SF-295 CNS) greater than 100 µM and a TGI (MOLT-4 leukemia) greater than 100 µM. For the same compound, the TGI (DLD-1 colon) was greater than 100 µM, the TGI (SR leukemia) was greater than 100 µM and the TGI (SK-MEL-2 melanoma) was greater than 100 µM. It also gave a TGI (HT29 colon) greater than 100 µM, a TGI (HCT-15 colon) greater than 100 µM and a TGI (DMS 114 small cell lung) of 67.6 µM. The TGI (A498 renal) was greater than 100 µM, the TGI (SN12C renal) was greater than 100 µM and the TGI (EKVX NSCLC) was greater than 91.8 µM. It also gave a TGI (TK-10 renal) greater than 100 µM, a TGI (K-562 leukemia) greater than 100 µM and a TGI (DMS 273 small cell lung) greater than 100 µM. For the same compound, the TGI (NCI-H226 lung) was greater than 87.2 µM, the TGI (M14 melanoma) was greater than 100 µM and the TGI (NCI-H522 lung) was greater than 64.3 µM. The TGI (786-0 renal) was greater than 100 µM.

Work on Cc1c(/C=N/NC(=O)c2ccccc2O)c(=O)n(-c2ccccc2)n1C yielded a TGI (KM20L2 colon) greater than 100 µM, a TGI (A549 NSCLC) greater than 100 µM and a TGI (OVCAR-4 ovarian) greater than 100 µM. For the same compound, the TGI (U251 CNS) was greater than 100 µM, the TGI (MALME-3M melanoma) was greater than 100 µM and the TGI (ACHN renal) was greater than 100 µM. It also gave a TGI (HCT-116 colon) greater than 100 µM, a TGI (XF 498 CNS) greater than 100 µM and a TGI (UACC-62 melanoma) greater than 100 µM. The TGI (COLO 205 colon) was greater than 100 µM, the TGI (HOP-62 NSCLC) was greater than 100 µM and the TGI (RPMI-8226 leukemia) was greater than 100 µM. It also gave a TGI (SF-268 CNS) greater than 100 µM, a TGI (NCI-H23 lung) greater than 100 µM and a TGI (IGROV1 ovarian) greater than 100 µM. It also gave a TGI (UACC-257 melanoma) greater than 100 µM, a TGI (HOP-92 NSCLC) greater than 100 µM and a TGI (OVCAR-8 ovarian) greater than 100 µM. It also gave a TGI (SK-MEL-28 melanoma) greater than 100 µM, a TGI (M19-MEL melanoma) greater than 100 µM and a TGI (SF-539 CNS) greater than 100 µM. It also gave a TGI (SK-OV-3 ovarian) greater than 100 µM, a TGI (NCI-H460 lung) greater than 100 µM and a TGI (LOX IMVI melanoma) greater than 100 µM. For the same compound, the TGI (RXF 393 renal) was greater than 100 µM, the TGI (CCRF-CEM leukemia) was greater than 100 µM and the TGI (HL-60(TB) leukemia) was greater than 100 µM. For the same compound, the TGI (UO-31 renal) was greater than 100 µM, the TGI (LXFL 529 NSCLC) was greater than 100 µM and the TGI (OVCAR-3 ovarian) was greater than 100 µM. It also gave a TGI (SNB-75 CNS) greater than 100 µM, a TGI (HOP-18 NSCLC) greater than 100 µM and a TGI (HCC-2998 colon) greater than 100 µM. For the same compound, the TGI (KM12 colon) was greater than 100 µM, the TGI (SNB-78 CNS) was greater than 100 µM and the TGI (SNB-19 CNS) was greater than 100 µM. The TGI (SF-295 CNS) was greater than 100 µM, the TGI (MOLT-4 leukemia) was greater than 100 µM and the TGI (DLD-1 colon) was greater than 100 µM. It also gave a TGI (SR leukemia) greater than 100 µM, a TGI (SK-MEL-2 melanoma) greater than 100 µM and a TGI (HT29 colon) greater than 100 µM. The TGI (HCT-15 colon) was greater than 100 µM, the TGI (DMS 114 small cell lung) was greater than 100 µM and the TGI (SN12C renal) was greater than 100 µM. The TGI (EKVX NSCLC) was greater than 100 µM, the TGI (TK-10 renal) was greater than 100 µM and the TGI (K-562 leukemia) was greater than 100 µM. The TGI (DMS 273 small cell lung) was greater than 100 µM, the TGI (NCI-H226 lung) was greater than 100 µM and the TGI (SW-620 colon) was greater than 100 µM. For the same compound, the TGI (M14 melanoma) was greater than 100 µM, the TGI (NCI-H522 lung) was greater than 100 µM and the TGI (786-0 renal) was greater than 100 µM.
